# Measured values taken from US10322126B2, “Solid dispersions of low-water solubility actives” (Bend Research, Inc., priority 2013, dated 2019).
# What was measured:
# [1] = cited from earlier work
# [2] = Microcentrifuge dissolution test (simulated gastric buffer, then FaSSIF); type: physicochemical; details: 37° C.
# Description: Dispersion 1 was evaluated in vitro using a microcentrifuge dissolution test using the following procedure. First, a sample of Dispersion 1 was placed in a microcentrifuge tube. A simulated gastric buffer (GB) solution consisting of 0.01 N HCl in water at 37° C. was added to each tube, so that the concentration if all of the active in the dispersion had dissolved would have been 2000 μg/mL. The tubes were vortexed for 1 minute. All work was performed in a temperature-controlled box at 37° C. After 9 minutes, the tubes were centrifuged at 13,000 rpm for 1 minute. A 50 μL centrifuged supernatant aliquot was removed from each tube and added to an HPLC vial containing 250 μL HPLC grade methanol. Following sample removal, the tubes were vortexed for 30 seconds. The tubes were allowed to sit undisturbed until the next sample, repeating the centrifuging/sampling/vortexing steps described above, to obtain a sample at 25 minutes following addition of the GB solution to the sample.
# After 30 minutes in the GB solution, 0.8 mL of double strength (1 wt %) simulated intestinal fluid powder (SIF powder, available from Phares AG, Basel, Switzerland) in double strength phosphate buffer saline (0.166 M NaCl, 0.040 M Na2HPO4, and 0.093 M KH2PO4), adjusted to pH 6.5 was added to each tube. The tubes were vortexed for 1 minute. The testing solution composition was used to model fasted simulated intestinal fluid (FaSSIF). The FaSSIF powder contains bile salts (taurocholate) and phospholipids (lecithin) in a molar ratio of 4 to 1, along with buffers and osmotic adjusters. The concentration of active in each tube was 1000 μg/mL if all of the active had dissolved. After 3 minutes in the FaSSIF solution, the tubes were centrifuged at 13,000 rpm for 1 minute. A 50 μL centrifuged supernatant aliquot was removed, as previously described, and added to an HPLC vial containing 250 μL of methanol. The tube then was vortexed for 30 seconds, and left undisturbed until the next time point. The procedure was repeated to collect samples at 10, 20, 40, 90, and 180 minutes after addition of FaSSIF to the vials.
# The dissolved concentrations of active were measured by HPLC. HPLC was performed using a Zorbax® SB-C18, 4.6×150 mm, 5 μm column at 30° C., and a mobile phase comprising 20 mM ammonium acetate/acetonitrile (43/57 vol/vol). The flow rate was 1.0 mL/min, 10 μL of each solution was injected, and the absorbance was measured at 332 nm.
# Dispersion 2 was tested using the same procedures described above. Control 1 was tested using the same procedures described above.
smiles,measurement,setting,value
"C#Cc1cccc(Nc2ncnc3cc(OCCOC)c(OCCOC)cc23)c1 [Erlotinib, N-(3-ethynylphenyl)-6,7-bis(2-methoxyethoxy) quinazolin-4-amine]",solubility in phosphate buffered saline (pH 6.5),[1],about 1 μg/mL
same,Dissolved Active Concentration,"[2]; 10 minutes, GB solution (0.01 N HCl), 2000 μg/mL if all dissolved","1,847.8 μg/mL"
same,Dissolved Active Concentration,"[2]; 25 minutes, GB solution (0.01 N HCl), 2000 μg/mL if all dissolved","1,818.5 μg/mL"
same,Dissolved Active Concentration,"[2]; 34 minutes (4 min after addition of FaSSIF, pH 6.5), 1000 μg/mL if all dissolved",58.0 µg/mL
same,Dissolved Active Concentration,"[2]; 40 minutes (10 min after addition of FaSSIF, pH 6.5), 1000 μg/mL if all dissolved",68.1 µg/mL
same,Dissolved Active Concentration,"[2]; 50 minutes (20 min after addition of FaSSIF, pH 6.5), 1000 μg/mL if all dissolved",51.4 µg/mL
same,Dissolved Active Concentration,"[2]; 70 minutes (40 min after addition of FaSSIF, pH 6.5), 1000 μg/mL if all dissolved",55.1 µg/mL
same,Dissolved Active Concentration,"[2]; 120 minutes (90 min after addition of FaSSIF, pH 6.5), 1000 μg/mL if all dissolved",67.8 µg/mL
same,Dissolved Active Concentration,"[2]; 210 minutes (180 min after addition of FaSSIF, pH 6.5), 1000 μg/mL if all dissolved",55.1 µg/mL
